Values joined by “and” are separate entries in the source; they are usually repeats but may differ in a detail not shown here. Identical values can stand only once.
Tests used:
Experiment in all cases: KINOMEscan competition binding
Details in all cases: compound 10.0 µM
EPHA3 (human) = EPHA3 (human) (UniProt P29320)
ACVR1B (human) = ACVR1B (human) (UniProt P36896)
MAP3K2 (human) = MAP3K2 (human) (UniProt Q9Y2U5)
FLT1 (human) = FLT1 (human) (UniProt P17948)
RIOK1 (human) = RIOK1 (human) (UniProt Q9BRS2)
FGFR3 (human) = FGFR3 (human) (UniProt P22607)
EPHB3 (human) = EPHB3 (human) (UniProt P54753)
CDK15 (human) = CDK15 (human) (UniProt Q96Q40)
CDKL5 (human) = CDKL5 (human) (UniProt O76039)
EPHA4 (human) = EPHA4 (human) (UniProt P54764)
Chain of EPHA4 (human) (P54764 whole entry, looked up): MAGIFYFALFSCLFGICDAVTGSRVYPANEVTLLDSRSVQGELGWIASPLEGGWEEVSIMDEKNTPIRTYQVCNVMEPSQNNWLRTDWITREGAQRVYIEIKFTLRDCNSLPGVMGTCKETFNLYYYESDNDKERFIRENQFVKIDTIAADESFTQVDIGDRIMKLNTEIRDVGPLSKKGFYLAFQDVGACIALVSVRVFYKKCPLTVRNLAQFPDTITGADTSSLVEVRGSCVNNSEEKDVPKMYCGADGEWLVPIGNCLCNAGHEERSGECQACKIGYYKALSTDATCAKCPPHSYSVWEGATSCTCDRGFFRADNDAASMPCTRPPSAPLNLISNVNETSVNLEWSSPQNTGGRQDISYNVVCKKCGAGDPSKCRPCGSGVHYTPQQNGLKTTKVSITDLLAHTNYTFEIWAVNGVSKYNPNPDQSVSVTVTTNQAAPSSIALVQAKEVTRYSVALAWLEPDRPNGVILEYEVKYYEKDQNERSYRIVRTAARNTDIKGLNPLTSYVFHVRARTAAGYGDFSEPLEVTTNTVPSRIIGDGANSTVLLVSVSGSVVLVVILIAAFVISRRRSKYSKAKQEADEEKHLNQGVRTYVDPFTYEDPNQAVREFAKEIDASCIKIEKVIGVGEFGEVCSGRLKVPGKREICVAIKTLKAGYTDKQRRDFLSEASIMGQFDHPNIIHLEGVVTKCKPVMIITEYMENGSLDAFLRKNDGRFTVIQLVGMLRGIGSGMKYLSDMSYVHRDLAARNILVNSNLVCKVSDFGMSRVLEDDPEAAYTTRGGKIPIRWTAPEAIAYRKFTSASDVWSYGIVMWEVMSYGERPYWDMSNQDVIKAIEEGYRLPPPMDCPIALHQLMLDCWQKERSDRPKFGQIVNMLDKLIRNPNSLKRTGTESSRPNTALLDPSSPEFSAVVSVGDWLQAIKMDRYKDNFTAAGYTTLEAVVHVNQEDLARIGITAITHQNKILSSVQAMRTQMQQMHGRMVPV

MAP3K13 (human) = MAP3K13 (human) (UniProt O43283)
AKT1 (human) = AKT1 (human) (UniProt P31749)
PLK2 (human) = PLK2 (human) (UniProt Q9NYY3)
SLK (human) = SLK (human) (UniProt Q9H2G2)
NLK (human) = NLK (human) (UniProt Q9UBE8)
MAPK7 (human) = MAPK7 (human) (UniProt Q13164)
CHEK1 (human) = CHEK1 (human) (UniProt O14757)
MYLK (human) = MYLK (human) (UniProt Q15746)
TAOK1 (human) = TAOK1 (human) (UniProt Q7L7X3)
Chain of TAOK1 (human) (Q7L7X3 whole entry, looked up): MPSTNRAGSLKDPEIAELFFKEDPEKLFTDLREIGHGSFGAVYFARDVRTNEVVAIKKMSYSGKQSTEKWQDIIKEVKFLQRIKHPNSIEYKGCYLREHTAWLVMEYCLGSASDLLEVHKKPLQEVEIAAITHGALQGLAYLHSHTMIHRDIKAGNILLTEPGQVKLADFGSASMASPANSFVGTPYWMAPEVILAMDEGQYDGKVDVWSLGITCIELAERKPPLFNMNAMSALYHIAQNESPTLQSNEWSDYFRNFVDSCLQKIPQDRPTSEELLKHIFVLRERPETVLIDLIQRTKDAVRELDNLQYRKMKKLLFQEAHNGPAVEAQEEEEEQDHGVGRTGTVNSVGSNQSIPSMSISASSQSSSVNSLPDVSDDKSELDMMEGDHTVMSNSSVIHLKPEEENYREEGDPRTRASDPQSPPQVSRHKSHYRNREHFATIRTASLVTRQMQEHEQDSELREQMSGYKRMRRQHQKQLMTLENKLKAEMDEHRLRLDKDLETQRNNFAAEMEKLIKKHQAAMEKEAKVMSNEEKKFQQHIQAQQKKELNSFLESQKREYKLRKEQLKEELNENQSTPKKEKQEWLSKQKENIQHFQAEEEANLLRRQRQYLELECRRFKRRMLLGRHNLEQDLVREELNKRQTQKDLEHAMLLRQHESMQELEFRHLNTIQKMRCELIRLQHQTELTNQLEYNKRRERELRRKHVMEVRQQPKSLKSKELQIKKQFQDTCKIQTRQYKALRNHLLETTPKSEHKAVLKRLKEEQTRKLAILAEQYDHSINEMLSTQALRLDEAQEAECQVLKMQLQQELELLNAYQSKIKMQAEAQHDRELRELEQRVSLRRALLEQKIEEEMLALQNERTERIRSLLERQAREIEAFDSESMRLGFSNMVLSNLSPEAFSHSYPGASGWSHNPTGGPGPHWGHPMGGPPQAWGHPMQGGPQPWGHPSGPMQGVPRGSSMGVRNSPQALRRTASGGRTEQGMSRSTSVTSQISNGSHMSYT

MARK4 (human) = MARK4 (human) (UniProt Q96L34)
PIK3CD (human) = PIK3CD (human) (UniProt O00329)
DMPK (human) = DMPK (human) (UniProt Q09013)
GRK4 (human) = GRK4 (human) (UniProt P32298)
CDC42BPG (human) = CDC42BPG (human) (UniProt Q6DT37)
CSNK1A1L (human) = CSNK1A1L (human) (UniProt Q8N752)
Chain of CSNK1A1L (human) (Q8N752 whole entry, looked up): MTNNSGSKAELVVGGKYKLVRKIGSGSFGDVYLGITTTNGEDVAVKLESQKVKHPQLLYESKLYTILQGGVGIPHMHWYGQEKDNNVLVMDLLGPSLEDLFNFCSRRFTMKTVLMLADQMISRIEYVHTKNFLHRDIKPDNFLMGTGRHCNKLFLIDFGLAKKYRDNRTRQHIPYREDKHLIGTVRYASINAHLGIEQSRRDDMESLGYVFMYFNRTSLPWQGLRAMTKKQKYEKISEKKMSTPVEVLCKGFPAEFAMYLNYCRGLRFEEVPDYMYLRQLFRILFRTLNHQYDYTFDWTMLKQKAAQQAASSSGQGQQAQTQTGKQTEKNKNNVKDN

CLK2 (human) = CLK2 (human) (UniProt P49760)
CDC2L2 (human) = CDC2L2 (human) (UniProt Q9UQ88)
MAPKAPK2 (human) = MAPKAPK2 (human) (UniProt P49137)
IKBKB (human) = IKBKB (human) (UniProt O14920)
MAP3K15 (human) = MAP3K15 (human) (UniProt Q6ZN16)
Chain of MAP3K15 (human) (Q6ZN16 whole entry, looked up): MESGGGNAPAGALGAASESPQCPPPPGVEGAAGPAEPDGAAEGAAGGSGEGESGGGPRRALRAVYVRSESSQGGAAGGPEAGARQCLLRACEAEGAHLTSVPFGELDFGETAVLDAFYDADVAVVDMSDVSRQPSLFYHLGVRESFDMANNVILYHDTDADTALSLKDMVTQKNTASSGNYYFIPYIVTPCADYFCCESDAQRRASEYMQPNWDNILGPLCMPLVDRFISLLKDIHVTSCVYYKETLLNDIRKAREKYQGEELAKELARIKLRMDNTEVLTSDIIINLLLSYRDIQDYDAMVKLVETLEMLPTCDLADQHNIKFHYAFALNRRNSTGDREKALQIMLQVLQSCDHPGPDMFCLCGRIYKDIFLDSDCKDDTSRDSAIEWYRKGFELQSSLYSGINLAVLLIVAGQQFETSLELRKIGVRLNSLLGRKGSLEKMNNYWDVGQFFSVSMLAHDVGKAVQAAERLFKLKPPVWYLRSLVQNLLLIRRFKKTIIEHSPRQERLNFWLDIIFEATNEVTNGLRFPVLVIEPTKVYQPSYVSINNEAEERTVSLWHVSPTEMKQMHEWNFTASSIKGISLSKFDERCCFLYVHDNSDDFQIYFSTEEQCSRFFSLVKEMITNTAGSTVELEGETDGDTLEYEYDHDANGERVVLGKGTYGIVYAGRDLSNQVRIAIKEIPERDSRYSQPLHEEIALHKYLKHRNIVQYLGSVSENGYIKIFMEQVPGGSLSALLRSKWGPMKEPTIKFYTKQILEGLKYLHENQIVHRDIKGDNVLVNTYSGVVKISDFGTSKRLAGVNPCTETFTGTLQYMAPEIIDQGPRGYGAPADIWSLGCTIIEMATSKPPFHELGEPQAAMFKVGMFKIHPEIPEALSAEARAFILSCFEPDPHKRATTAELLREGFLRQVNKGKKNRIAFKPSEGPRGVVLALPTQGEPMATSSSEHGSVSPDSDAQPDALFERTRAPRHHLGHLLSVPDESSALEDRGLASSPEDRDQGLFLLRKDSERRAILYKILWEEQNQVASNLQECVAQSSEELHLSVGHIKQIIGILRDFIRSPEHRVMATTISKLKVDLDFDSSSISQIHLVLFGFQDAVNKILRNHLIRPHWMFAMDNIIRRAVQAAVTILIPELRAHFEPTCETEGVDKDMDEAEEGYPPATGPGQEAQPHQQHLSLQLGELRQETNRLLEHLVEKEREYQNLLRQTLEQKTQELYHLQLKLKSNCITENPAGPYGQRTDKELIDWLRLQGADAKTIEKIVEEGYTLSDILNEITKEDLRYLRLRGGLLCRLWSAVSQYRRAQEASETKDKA

RPS6KA1 KD2 (human) = RPS6KA1 KD2 (human) (UniProt Q15418)
PIP5K1C (human) = PIP5K1C (human) (UniProt O60331)
STK25 (human) = STK25 (human) (UniProt O00506)
ERBB3 (human) = ERBB3 (human) (UniProt P21860)
SYK (human) = SYK (human) (UniProt P43405)
[1] = system: RET (human), P07949 [M918T]
[2] = system: ABL1 (human), P00519 [Y253F]
MAP4K5 (human) = MAP4K5 (human) (UniProt Q9Y4K4)
NTRK3 (human) = NTRK3 (human) (UniProt Q16288)
STK35 (human) = STK35 (human) (UniProt Q8TDR2)

Chain of FLT1 (human) (P17948 whole entry, looked up): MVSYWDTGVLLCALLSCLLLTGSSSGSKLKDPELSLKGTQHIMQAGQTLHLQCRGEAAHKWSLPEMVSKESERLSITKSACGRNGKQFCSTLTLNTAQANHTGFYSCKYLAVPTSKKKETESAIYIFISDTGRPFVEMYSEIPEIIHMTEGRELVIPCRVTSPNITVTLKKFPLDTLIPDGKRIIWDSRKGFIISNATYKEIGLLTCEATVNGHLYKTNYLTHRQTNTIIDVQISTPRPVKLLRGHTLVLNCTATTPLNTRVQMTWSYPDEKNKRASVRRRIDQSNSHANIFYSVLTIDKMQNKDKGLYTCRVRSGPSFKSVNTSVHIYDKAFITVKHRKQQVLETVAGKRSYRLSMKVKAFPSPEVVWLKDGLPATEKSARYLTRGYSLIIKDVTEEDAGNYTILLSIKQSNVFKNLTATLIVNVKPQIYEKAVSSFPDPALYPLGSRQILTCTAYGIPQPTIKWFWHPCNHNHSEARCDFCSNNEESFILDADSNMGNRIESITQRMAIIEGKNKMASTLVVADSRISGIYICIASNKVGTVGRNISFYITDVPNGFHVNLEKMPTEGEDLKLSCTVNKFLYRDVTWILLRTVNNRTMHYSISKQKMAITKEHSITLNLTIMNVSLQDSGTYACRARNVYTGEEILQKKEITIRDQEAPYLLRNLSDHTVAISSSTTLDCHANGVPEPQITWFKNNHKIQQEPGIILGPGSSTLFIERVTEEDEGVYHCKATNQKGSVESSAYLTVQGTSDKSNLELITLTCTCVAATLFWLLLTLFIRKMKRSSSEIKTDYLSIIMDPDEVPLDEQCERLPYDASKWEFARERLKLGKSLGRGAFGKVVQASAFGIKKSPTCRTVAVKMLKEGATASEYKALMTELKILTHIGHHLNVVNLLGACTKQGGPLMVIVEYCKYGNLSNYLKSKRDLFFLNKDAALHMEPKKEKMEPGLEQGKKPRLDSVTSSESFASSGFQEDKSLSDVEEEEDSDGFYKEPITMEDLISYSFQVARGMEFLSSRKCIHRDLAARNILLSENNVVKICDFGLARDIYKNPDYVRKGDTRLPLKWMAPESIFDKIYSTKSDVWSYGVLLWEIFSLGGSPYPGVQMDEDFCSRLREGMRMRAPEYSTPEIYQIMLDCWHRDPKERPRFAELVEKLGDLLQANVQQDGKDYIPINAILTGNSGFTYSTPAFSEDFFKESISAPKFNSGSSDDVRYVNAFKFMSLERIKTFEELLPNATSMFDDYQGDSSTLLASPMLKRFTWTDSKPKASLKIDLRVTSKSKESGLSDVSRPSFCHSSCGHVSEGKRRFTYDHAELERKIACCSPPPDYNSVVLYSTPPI

SMILES	kinase still bound, per cent of control (EPHA3 (human))	kinase still bound, per cent of control (ACVR1B (human))	kinase still bound, per cent of control (MAP3K2 (human))	kinase still bound, per cent of control (FLT1 (human))	kinase still bound, per cent of control (RIOK1 (human))	kinase still bound, per cent of control (FGFR3 (human))	kinase still bound, per cent of control (EPHB3 (human))	kinase still bound, per cent of control (CDK15 (human))	kinase still bound, per cent of control (CDKL5 (human))	kinase still bound, per cent of control (EPHA4 (human))	kinase still bound, per cent of control (MAP3K13 (human))	kinase still bound, per cent of control (AKT1 (human))	kinase still bound, per cent of control (PLK2 (human))	kinase still bound, per cent of control (SLK (human))	kinase still bound, per cent of control (NLK (human))	kinase still bound, per cent of control (MAPK7 (human))	kinase still bound, per cent of control (CHEK1 (human))	kinase still bound, per cent of control (MYLK (human))	kinase still bound, per cent of control (TAOK1 (human))	kinase still bound, per cent of control (MARK4 (human))	further results
C[C@@H](Oc1cc(-c2cnn(C3CCNCC3)c2)cnc1N)c1c(Cl)ccc(F)c1Cl	11%	9%	0.05%	25%	3.4%	22%	100%	73%	25%	6%	10%	100%	73%	0.1%	93%	0.1%	91%	82%	1.2%	48%	kinase still bound, per cent of control (PIK3CD (human)): 100%; kinase still bound, per cent of control (DMPK (human)): 1.6%; kinase still bound, per cent of control (GRK4 (human)): 14%; kinase still bound, per cent of control (CDC42BPG (human)): 48%; kinase still bound, per cent of control (CSNK1A1L (human)): 100%; kinase still bound, per cent of control (CLK2 (human)): 68%; kinase still bound, per cent of control (CDC2L2 (human)): 0.35%; kinase still bound, per cent of control (MAPKAPK2 (human)): 100%; kinase still bound, per cent of control (IKBKB (human)): 14%; kinase still bound, per cent of control (MAP3K15 (human)): 73%; kinase still bound, per cent of control (RPS6KA1 KD2 (human)): 54%; kinase still bound, per cent of control (PIP5K1C (human)): 63%; kinase still bound, per cent of control (STK25 (human)): 65%; kinase still bound, per cent of control (ERBB3 (human)): 81%
CS(=O)(=O)N1CCN(Cc2cc3nc(-c4cccc5[nH]ncc45)nc(N4CCOCC4)c3s2)CC1	100%	100%	100%	100%	100%	100%	100%	100%	100%	100%	100%	100%	100%	100%	100%	100%	100%	100%	100%	100%	kinase still bound, per cent of control (SYK (human)): 100%; kinase still bound, per cent of control [1]: 100%; kinase still bound, per cent of control [2]: 100%; kinase still bound, per cent of control (MAP4K5 (human)): 100%; kinase still bound, per cent of control (NTRK3 (human)): 100%; kinase still bound, per cent of control (PIK3CD (human)): 5.2%; kinase still bound, per cent of control (DMPK (human)): 100%; kinase still bound, per cent of control (GRK4 (human)): 100%; kinase still bound, per cent of control (CDC42BPG (human)): 100%; kinase still bound, per cent of control (CSNK1A1L (human)): 100%; kinase still bound, per cent of control (STK35 (human)): 100%; kinase still bound, per cent of control (CDC2L2 (human)): 100%; kinase still bound, per cent of control (MAPKAPK2 (human)): 100%; kinase still bound, per cent of control (IKBKB (human)): 100%; kinase still bound, per cent of control (MAP3K15 (human)): 100%; kinase still bound, per cent of control (RPS6KA1 KD2 (human)): 100%; kinase still bound, per cent of control (STK25 (human)): 100%; kinase still bound, per cent of control (ERBB3 (human)): 100%
COc1cc(N2CCN(C)CC2)ccc1Nc1ncc2c(n1)N(C)c1ccccc1C(=O)N2C	100%	100%	32%	100%	100%	100%	100%	100%	100%	100%	100%	100%	100%	100%	100%	0%	100%	13%	17% and 4.8%	100%	kinase still bound, per cent of control (SYK (human)): 100%; kinase still bound, per cent of control [1]: 100%; kinase still bound, per cent of control [2]: 100%; kinase still bound, per cent of control (MAP4K5 (human)): 100%; kinase still bound, per cent of control (NTRK3 (human)): 100%; kinase still bound, per cent of control (PIK3CD (human)): 33%; kinase still bound, per cent of control (DMPK (human)): 100%; kinase still bound, per cent of control (GRK4 (human)): 100%; kinase still bound, per cent of control (CDC42BPG (human)): 100%; kinase still bound, per cent of control (CSNK1A1L (human)): 100%; kinase still bound, per cent of control (CLK2 (human)): 100%; kinase still bound, per cent of control (STK35 (human)): 100%; kinase still bound, per cent of control (CDC2L2 (human)): 100%; kinase still bound, per cent of control (MAPKAPK2 (human)): 100%; kinase still bound, per cent of control (IKBKB (human)): 100%; kinase still bound, per cent of control (MAP3K15 (human)): 100%; kinase still bound, per cent of control (RPS6KA1 KD2 (human)): 18%; kinase still bound, per cent of control (STK25 (human)): 100%; kinase still bound, per cent of control (ERBB3 (human)): 100%
CCN(CC)CCCCNc1ncc2c(n1)N(C)C(=O)N(c1c(Cl)c(OC)cc(OC)c1Cl)C2	100%	100%	6.8%	5.6%	100%	3.3%	100%	100%	100%	100%	100%	100%	100%	100%	100%	4.1%	100%	100%	0.25% and 2.9%	100%	kinase still bound, per cent of control (SYK (human)): 100%; kinase still bound, per cent of control [1]: 100%; kinase still bound, per cent of control [2]: 100%; kinase still bound, per cent of control (MAP4K5 (human)): 23%; kinase still bound, per cent of control (NTRK3 (human)): 100%; kinase still bound, per cent of control (PIK3CD (human)): 100%; kinase still bound, per cent of control (DMPK (human)): 100%; kinase still bound, per cent of control (GRK4 (human)): 100%; kinase still bound, per cent of control (CDC42BPG (human)): 100%; kinase still bound, per cent of control (CSNK1A1L (human)): 100%; kinase still bound, per cent of control (CLK2 (human)): 100%; kinase still bound, per cent of control (STK35 (human)): 100%; kinase still bound, per cent of control (CDC2L2 (human)): 26%; kinase still bound, per cent of control (MAPKAPK2 (human)): 100%; kinase still bound, per cent of control (IKBKB (human)): 100%; kinase still bound, per cent of control (MAP3K15 (human)): 100%; kinase still bound, per cent of control (RPS6KA1 KD2 (human)): 100%; kinase still bound, per cent of control (STK25 (human)): 100%; kinase still bound, per cent of control (ERBB3 (human)): 100%

Source: the kinase profiling compilation of Christmann-Franck et al. (2016)
